This passage reports Efficacy and EC50 results from ChEMBL document CHEMBL3616390, “Design and synthesis of N-[6-(Substituted Aminoethylideneamino)-2-Hydroxyindan-1-yl]arylamides as selective and potent muscarinic M₁ agonists” (Bioorg Med Chem Lett, 2015).

Holding throughout (type): functional, cell-based
Assay [1] deals with T1, Muscarinic acetylcholine receptor M2 (Homo sapiens) (UniProt P08172).
T1 sequence (whole entry): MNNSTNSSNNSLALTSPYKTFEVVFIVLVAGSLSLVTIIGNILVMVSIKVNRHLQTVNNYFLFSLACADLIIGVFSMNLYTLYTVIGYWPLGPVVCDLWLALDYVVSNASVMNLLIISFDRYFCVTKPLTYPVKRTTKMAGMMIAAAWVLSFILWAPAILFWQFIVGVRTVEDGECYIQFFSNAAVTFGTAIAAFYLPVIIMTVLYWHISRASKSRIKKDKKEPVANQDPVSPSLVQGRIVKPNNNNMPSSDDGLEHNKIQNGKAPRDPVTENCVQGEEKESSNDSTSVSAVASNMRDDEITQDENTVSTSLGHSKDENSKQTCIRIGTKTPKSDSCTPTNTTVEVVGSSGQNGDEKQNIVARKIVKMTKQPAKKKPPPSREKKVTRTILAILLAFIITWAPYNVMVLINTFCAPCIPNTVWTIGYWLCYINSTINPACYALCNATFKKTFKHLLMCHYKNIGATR
Briefly: Agonist activity at human muscarinic M2 receptor expressed in CHO cells after 30 mins by GTPgamma35S binding assay relative to oxotremorine-M.

Assay [2] concerns the target T2, Muscarinic acetylcholine receptor M2 (Homo sapiens, UniProt P08172).
T2 sequence (P08172 whole entry): T1 sequence (whole entry)
As to the kind of experiment: Agonist activity at human muscarinic M2 receptor expressed in CHO cells after 30 mins by GTPgamma35S binding assay.

Assay [3] concerns the target T3, Muscarinic acetylcholine receptor M5 (Homo sapiens, UniProt P08912).
T3 sequence (P08912 whole entry): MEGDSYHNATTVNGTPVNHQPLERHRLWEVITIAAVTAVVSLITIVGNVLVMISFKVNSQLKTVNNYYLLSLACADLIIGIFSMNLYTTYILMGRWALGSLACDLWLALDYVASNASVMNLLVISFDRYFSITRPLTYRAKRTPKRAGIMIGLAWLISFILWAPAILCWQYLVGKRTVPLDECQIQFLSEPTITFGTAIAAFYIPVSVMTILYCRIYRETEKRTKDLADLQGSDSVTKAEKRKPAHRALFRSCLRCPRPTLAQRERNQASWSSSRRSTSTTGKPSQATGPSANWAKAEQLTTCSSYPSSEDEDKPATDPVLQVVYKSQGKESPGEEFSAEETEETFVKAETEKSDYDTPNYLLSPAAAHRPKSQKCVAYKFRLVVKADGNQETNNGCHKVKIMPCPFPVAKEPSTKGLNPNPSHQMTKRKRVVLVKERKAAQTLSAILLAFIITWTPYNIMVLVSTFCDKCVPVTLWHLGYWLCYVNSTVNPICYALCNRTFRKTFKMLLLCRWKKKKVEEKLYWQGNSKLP
Briefly: Agonist activity at human muscarinic M5 receptor expressed in CHO cells after 30 mins by GTPgamma35S binding assay. To be noted: cho.

The target of assay [4] is T4, Muscarinic acetylcholine receptor M1 (Homo sapiens) (UniProt P11229).
T4 sequence (whole entry): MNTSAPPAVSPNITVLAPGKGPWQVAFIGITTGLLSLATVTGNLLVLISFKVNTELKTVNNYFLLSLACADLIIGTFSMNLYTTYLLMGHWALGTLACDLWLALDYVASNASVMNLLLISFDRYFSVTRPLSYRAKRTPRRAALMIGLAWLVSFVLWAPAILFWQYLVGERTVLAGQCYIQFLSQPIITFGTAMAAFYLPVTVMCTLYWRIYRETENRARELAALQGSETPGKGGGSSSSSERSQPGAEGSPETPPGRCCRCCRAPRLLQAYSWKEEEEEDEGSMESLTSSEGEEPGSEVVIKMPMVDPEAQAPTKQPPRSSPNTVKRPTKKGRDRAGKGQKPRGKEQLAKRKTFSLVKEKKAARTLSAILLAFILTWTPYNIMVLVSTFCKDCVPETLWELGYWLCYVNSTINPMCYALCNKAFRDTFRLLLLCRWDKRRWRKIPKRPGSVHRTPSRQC
As to the kind of experiment: Agonist activity at human muscarinic M1 receptor expressed in CHO cells after 30 mins by GTPgamma35S binding assay relative to oxotremorine-M.

The target of assay [5] is T5, Muscarinic acetylcholine receptor M4 (Homo sapiens) (UniProt P08173).
T5 sequence (whole entry): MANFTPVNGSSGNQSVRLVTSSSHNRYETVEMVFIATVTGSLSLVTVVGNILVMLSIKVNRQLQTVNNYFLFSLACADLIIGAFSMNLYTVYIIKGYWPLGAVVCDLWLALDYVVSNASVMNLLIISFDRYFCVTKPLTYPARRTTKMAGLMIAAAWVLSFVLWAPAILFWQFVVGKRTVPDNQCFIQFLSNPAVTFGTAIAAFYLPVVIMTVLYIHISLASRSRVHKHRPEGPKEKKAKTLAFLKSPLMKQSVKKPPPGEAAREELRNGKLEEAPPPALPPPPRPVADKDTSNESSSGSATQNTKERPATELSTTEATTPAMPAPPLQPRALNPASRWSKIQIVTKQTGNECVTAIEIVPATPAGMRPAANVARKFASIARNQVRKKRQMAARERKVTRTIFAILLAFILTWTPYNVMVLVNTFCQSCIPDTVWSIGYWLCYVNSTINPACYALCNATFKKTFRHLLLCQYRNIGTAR
As to the kind of experiment: Agonist activity at human muscarinic M4 receptor expressed in CHO cells after 30 mins by GTPgamma35S binding assay relative to oxotremorine-M.

For assay [6], the target named is T6, Muscarinic acetylcholine receptor M1 (Homo sapiens, UniProt P11229).
T6 sequence (P11229 whole entry): T4 sequence (whole entry)
Briefly: Agonist activity at human muscarinic M1 receptor expressed in CHO cells after 30 mins by GTPgamma35S binding assay.

In assay [7] the target is Muscarinic acetylcholine receptor M3 (Homo sapiens, UniProt P20309). Briefly: Agonist activity at human muscarinic M3 receptor expressed in CHO cells after 30 mins by GTPgamma35S binding assay. The settings on record: cho.
Sequence of Muscarinic acetylcholine receptor M3 (P20309 whole entry): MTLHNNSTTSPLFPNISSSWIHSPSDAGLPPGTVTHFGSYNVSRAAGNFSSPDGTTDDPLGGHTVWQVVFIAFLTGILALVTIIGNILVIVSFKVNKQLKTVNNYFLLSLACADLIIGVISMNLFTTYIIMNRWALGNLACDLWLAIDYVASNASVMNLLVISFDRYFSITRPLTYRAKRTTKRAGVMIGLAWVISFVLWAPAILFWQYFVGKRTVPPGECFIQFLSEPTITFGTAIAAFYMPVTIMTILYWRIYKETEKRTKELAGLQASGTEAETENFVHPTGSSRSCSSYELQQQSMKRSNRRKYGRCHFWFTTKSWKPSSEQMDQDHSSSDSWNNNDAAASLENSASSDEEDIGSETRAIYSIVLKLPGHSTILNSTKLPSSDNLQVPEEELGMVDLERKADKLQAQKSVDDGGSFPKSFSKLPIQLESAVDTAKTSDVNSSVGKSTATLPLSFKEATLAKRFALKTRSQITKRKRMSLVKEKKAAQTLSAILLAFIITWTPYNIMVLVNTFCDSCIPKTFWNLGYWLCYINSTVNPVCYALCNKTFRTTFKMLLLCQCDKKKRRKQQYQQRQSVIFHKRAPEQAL
The target of assay [8] is T7, Muscarinic acetylcholine receptor M4 (Homo sapiens, UniProt P08173).
T7 sequence (P08173 whole entry): T5 sequence (whole entry)
As to the kind of experiment: Agonist activity at human muscarinic M4 receptor expressed in CHO cells after 30 mins by GTPgamma35S binding assay.

`C/C(=N\c1ccc2c(c1)[C@@H](NC(=O)c1ccc(Br)cc1)[C@H](O)C2)NCCc1ccc(F)cc1`: the Efficacy in assay [1] is 38.5%; in assay [4] it was 90.6%; in assay [5] it was < 20%. The 50% effective concentration (EC50) is 211 nM in assay [2], “Not Active” in assay [3], 183 nM in assay [6] and “Not Active” in assay [7].

In the case of `C/C(=N\c1ccc2c(c1)[C@@H](NC(=O)c1ccc(F)cc1)[C@H](O)C2)N(C)Cc1ccc(F)cc1`, the Efficacy in assay [1] stood at 43.6%; in assay [4], 76.6%; in assay [5], 28.4%. The EC50 was 242 nM in assay [2]; “Not Active” in assay [3]; 392 nM in assay [8]; 392 nM in assay [6]; “Not Active” in assay [7].

Turning to `COc1ccc(N/C(C)=N/c2ccc3c(c2)[C@@H](NC(=O)c2ccc(Br)cc2)[C@H](O)C3)cc1`, the Efficacy in assay [1] was < 20%; in assay [4], 35.3%; in assay [5], < 20%. Also, the EC50 result is “Not Active” in assay [3], 105 nM in assay [6] and “Not Active” in assay [7].

Take `C/C(=N\c1ccc2c(c1)[C@@H](NC(=O)c1ccc(Br)cc1)[C@H](O)C2)NCc1cccc(F)c1`: the Efficacy amounted to 26.6% in assay [1], 94% in assay [4] and 33.4% in assay [5]. The EC50 in assay [2] was 435 nM; in assay [3], “Not Active”; in assay [8] it was 355 nM; in assay [6], 48.4 nM; in assay [7] it was “Not Active”.

For the compound `C/C(=N\c1ccc2c(c1)[C@@H](NC(=O)c1ccc(Br)cc1)[C@H](O)C2)N(C)Cc1ccc(F)cc1`, the Efficacy in assay [1] was 30.9%; in assay [4], 107%; in assay [5], 34.3%. In addition, the EC50 in assay [2] is 604 nM; in assay [3], “Not Active”; in assay [8], 3720 nM; in assay [6] it was 154 nM; in assay [7], “Not Active”.

With `C/C(=N\c1ccc2c(c1)[C@@H](NC(=O)c1ccc(C(F)(F)F)cc1)[C@H](O)C2)N(C)Cc1ccc(F)cc1`, the Efficacy in assay [1] is 25.4%; in assay [4], 106%; in assay [5], 30.8%. In addition, the EC50 is 172 nM in assay [2]; “Not Active” in assay [3]; 393 nM in assay [8]; 36 nM in assay [6]; “Not Active” in assay [7].

Take `C/C(=N\c1ccc2c(c1)[C@@H](NC(=O)c1ccc(Br)cc1)[C@H](O)C2)NCc1ccccc1F`: the values for the Efficacy in assay [1], in assay [4] and in assay [5] were 33.6%, 78.5% and 25.7%, respectively. In addition, the EC50 in assay [2] was 118 nM; in assay [3] it was “Not Active”; in assay [8] it was 227 nM; in assay [6], 87 nM; in assay [7], “Not Active”.

With `COc1ccccc1CN/C(C)=N/c1ccc2c(c1)[C@@H](NC(=O)c1ccc(Br)cc1)[C@H](O)C2`, the figures for the Efficacy in assay [1], in assay [4] and in assay [5] were < 20%, 71.5% and < 20%, respectively. Besides, the EC50 entry in assay [3] was “Not Active”; in assay [6] it was 572 nM; in assay [7], “Not Active”.

Take `C/C(=N\c1ccc2c(c1)[C@@H](NC(=O)c1ccc(C)cc1)[C@H](O)C2)N(C)Cc1ccc(F)cc1`: the Efficacy in assay [1] is 45.1%; in assay [4], 106%; in assay [5], 41.5%. The EC50 was 65.4 nM in assay [2]; “Not Active” in assay [3]; 235 nM in assay [8]; 49.5 nM in assay [6]; “Not Active” in assay [7].

On to `C/C(=N\c1ccc2c(c1)[C@@H](NC(=O)c1ccc(Cl)cc1)[C@H](O)C2)N(C)Cc1ccc(F)cc1`, for which the Efficacy in assay [1] was 45%; in assay [4] it was 112%; in assay [5], 42.8%. The EC50 was 65.5 nM in assay [2]; “Not Active” in assay [3]; 405 nM in assay [8]; 31 nM in assay [6]; “Not Active” in assay [7].

Take `COc1cccc(CN/C(C)=N/c2ccc3c(c2)[C@@H](NC(=O)c2ccc(Br)cc2)[C@H](O)C3)c1`: the Efficacy in assay [1] is < 20%; in assay [4], 60%; in assay [5], < 20%. Further, the values for the EC50 result in assay [3], in assay [6] and in assay [7] were “Not Active”, 198 nM and “Not Active”, respectively.

In the case of `C/C(=N\c1ccc2c(c1)[C@@H](NC(=O)c1ccc(Br)cc1)[C@H](O)C2)N(C)CCc1ccc(F)cc1`, the Efficacy was 20.8% in assay [1], 68.5% in assay [4] and < 20% in assay [5]. The concentration for a half-maximal effect (EC50) in assay [2] was 342 nM; in assay [3], “Not Active”; in assay [6], 80.9 nM; in assay [7] it was “Not Active”.

On to `O=C(N[C@@H]1c2cc(/N=C(/Nc3ccc(F)cc3)C(F)(F)F)ccc2C[C@H]1O)c1ccc(Br)cc1`, for which the Efficacy in assay [1], in assay [4] and in assay [5] was < 20% in each case. The EC50 result in assay [3] and in assay [7] was “Not Active” in each case.

In the case of `COc1ccc(CCN/C(C)=N/c2ccc3c(c2)[C@@H](NC(=O)c2ccc(Br)cc2)[C@H](O)C3)cc1`, the Efficacy in assay [1] amounted to 38.9%; in assay [4] it was 84.5%; in assay [5], 29.9%. In addition, the EC50 in assay [2] is 411 nM; in assay [3], “Not Active”; in assay [8] it was 1360 nM; in assay [6], 426 nM; in assay [7] it was “Not Active”.

As to `COc1ccc(C(=O)N[C@@H]2c3cc(/N=C(\C)N(C)Cc4ccc(F)cc4)ccc3C[C@H]2O)cc1`, the values for the Efficacy in assay [1], in assay [4] and in assay [5] were < 20%, 93.2% and < 20%, respectively. In addition, the concentration for a half-maximal effect (EC50) result in assay [3] was “Not Active”; in assay [6], 166 nM; in assay [7] it was “Not Active”.

As for `COc1ccc(CN/C(C)=N/c2ccc3c(c2)[C@@H](NC(=O)c2ccc(Br)cc2)[C@H](O)C3)cc1`, the Efficacy is < 20% in assay [1], 32.1% in assay [4] and < 20% in assay [5]. Also, the EC50 entry in assay [3] is “Not Active”; in assay [6] it was 837 nM; in assay [7] it was “Not Active”.
